According to ChEMBL document CHEMBL3112480, “γ-Alkylidene-γ-lactones and isobutylpyrrol-2(5H)-ones analogues to rubrolides as inhibitors of biofilm formation by gram-positive and gram-negative bacteria” (Bioorg Med Chem Lett, 2014):
pIC50: −log10 of the molar value. In brackets after ≈: the same amount, converted by molar mass. Values belong to the compound of their own block, whether it stands above or below them.

What was measured:
Streptococcus mutans [1] = assay: Antibacterial activity against Streptococcus mutans ATCC 25175 assessed as effect on planktonic growth at 5.5 ug/ml after 20 hrs relative to control; format: functional
Pseudomonas aeruginosa [2] = assay: Antibacterial activity against Pseudomonas aeruginosa ATCC 27853 assessed as inhibition of biofilm formation after 20 hrs by crystal-violet staining method; format: functional, organism-based
Pseudomonas aeruginosa [3] = assay: Antibacterial activity against Pseudomonas aeruginosa ATCC 27853 assessed as effect on planktonic growth at 1.37 ug/ml after 20 hrs relative to control; format: functional
Pseudomonas aeruginosa [4] = assay: Antibacterial activity against Pseudomonas aeruginosa ATCC 27853 assessed as effect on planktonic growth at 0.68 ug/ml after 20 hrs relative to control; format: functional
Staphylococcus aureus [5] = assay: Antibacterial activity against Staphylococcus aureus ATCC 25923 assessed as effect on planktonic growth at 0.17 ug/ml after 20 hrs relative to control; format: functional
Streptococcus mutans [6] = assay: Antibacterial activity against Streptococcus mutans ATCC 25175 assessed as inhibition of biofilm formation at 44 ug/ml after 20 hrs by crystal-violet staining method relative to control; format: functional; conditions: ATCC 25175, 20 h
Pseudomonas aeruginosa [7] = assay: Antibacterial activity against Pseudomonas aeruginosa ATCC 27853 assessed as effect on planktonic growth at 21.9 ug/ml after 20 hrs relative to control; format: functional
Streptococcus mutans [8] = assay: Antibacterial activity against Streptococcus mutans ATCC 25175 assessed as effect on planktonic growth at 2.73 ug/ml after 20 hrs relative to control; format: functional
Streptococcus mutans [9] = assay: Antibacterial activity against Streptococcus mutans ATCC 25175 assessed as effect on planktonic growth at 10.9 ug/ml after 20 hrs relative to control; format: functional
Pseudomonas aeruginosa [10] = assay: Antibacterial activity against Pseudomonas aeruginosa ATCC 27853 assessed as effect on planktonic growth at 87.5 ug/ml after 20 hrs relative to control; format: functional
Staphylococcus aureus [11] = assay: Antibacterial activity against Staphylococcus aureus ATCC 25923 assessed as effect on planktonic growth at 87.5 ug/ml after 20 hrs relative to control; format: functional
[12] = tested on: Staphylococcus epidermidis; assay: Antibacterial activity against Staphylococcus epidermidis ATCC 35547 assessed as effect on planktonic growth at 1.37 ug/ml after 20 hrs relative to control; format: functional
[13] = tested on: Staphylococcus epidermidis; assay: Antibacterial activity against Staphylococcus epidermidis ATCC 35547 assessed as effect on planktonic growth at 10.9 ug/ml after 20 hrs relative to control; format: functional
Streptococcus mutans [14] = assay: Antibacterial activity against Streptococcus mutans ATCC 25175 assessed as effect on planktonic growth at 43.8 ug/ml after 20 hrs relative to control; format: functional
Pseudomonas aeruginosa [15] = assay: Antibacterial activity against Pseudomonas aeruginosa ATCC 27853 assessed as effect on planktonic growth at 0.34 ug/ml after 20 hrs relative to control; format: functional
Streptococcus mutans [16] = assay: Antibacterial activity against Streptococcus mutans ATCC 25175 assessed as effect on planktonic growth at 0.34 ug/ml after 20 hrs relative to control; format: functional
[17] = tested on: Staphylococcus epidermidis; assay: Antibacterial activity against Staphylococcus epidermidis ATCC 35547 assessed as effect on planktonic growth at 2.73 ug/ml after 20 hrs relative to control; format: functional
Streptococcus mutans [18] = assay: Antibacterial activity against Streptococcus mutans ATCC 25175 assessed as effect on planktonic growth at 0.17 ug/ml after 20 hrs relative to control; format: functional
Pseudomonas aeruginosa [19] = assay: Antibacterial activity against Pseudomonas aeruginosa ATCC 27853 assessed as effect on planktonic growth at 5.5 ug/ml after 20 hrs relative to control; format: functional
Staphylococcus aureus [20] = assay: Antibacterial activity against Staphylococcus aureus ATCC 25923 assessed as effect on planktonic growth at 0.34 ug/ml after 20 hrs relative to control; format: functional
Staphylococcus aureus [21] = assay: Antibacterial activity against Staphylococcus aureus ATCC 25923 assessed as inhibition of biofilm formation after 20 hrs by crystal-violet staining method; format: functional, organism-based; conditions: ATCC 25923, 20 h
[22] = tested on: Staphylococcus epidermidis; assay: Antibacterial activity against Staphylococcus epidermidis ATCC 35547 assessed as effect on planktonic growth at 21.9 ug/ml after 20 hrs relative to control; format: functional
Staphylococcus aureus [23] = assay: Antibacterial activity against Staphylococcus aureus ATCC 25923 assessed as effect on planktonic growth at 21.9 ug/ml after 20 hrs relative to control; format: functional
[24] = tested on: Staphylococcus epidermidis; assay: Antibacterial activity against Staphylococcus epidermidis ATCC 35547 assessed as effect on planktonic growth at 0.68 ug/ml after 20 hrs relative to control; format: functional
[25] = tested on: Staphylococcus epidermidis; assay: Antibacterial activity against Staphylococcus epidermidis ATCC 35547 assessed as effect on planktonic growth at 43.8 ug/ml after 20 hrs relative to control; format: functional
Pseudomonas aeruginosa [26] = assay: Antibacterial activity against Pseudomonas aeruginosa ATCC 27853 assessed as effect on planktonic growth at 43.8 ug/ml after 20 hrs relative to control; format: functional
Streptococcus mutans [27] = assay: Antibacterial activity against Streptococcus mutans ATCC 25175 assessed as effect on planktonic growth at 1.37 ug/ml after 20 hrs relative to control; format: functional
[28] = tested on: Staphylococcus epidermidis; assay: Antibacterial activity against Staphylococcus epidermidis ATCC 35547 assessed as effect on planktonic growth at 5.5 ug/ml after 20 hrs relative to control; format: functional
[29] = tested on: Staphylococcus epidermidis; assay: Antibacterial activity against Staphylococcus epidermidis ATCC 35547 assessed as effect on planktonic growth at 0.17 ug/ml after 20 hrs relative to control; format: functional
Streptococcus mutans [30] = assay: Antibacterial activity against Streptococcus mutans ATCC 25175 assessed as effect on planktonic growth at 21.9 ug/ml after 20 hrs relative to control; format: functional
Staphylococcus aureus [31] = assay: Antibacterial activity against Staphylococcus aureus ATCC 25923 assessed as effect on planktonic growth at 0.68 ug/ml after 20 hrs relative to control; format: functional
Staphylococcus aureus [32] = assay: Antibacterial activity against Staphylococcus aureus ATCC 25923 assessed as effect on planktonic growth at 10.9 ug/ml after 20 hrs relative to control; format: functional
Streptococcus mutans [33] = assay: Antibacterial activity against Streptococcus mutans ATCC 25175 assessed as effect on planktonic growth at 87.5 ug/ml after 20 hrs relative to control; format: functional
Staphylococcus aureus [34] = assay: Antibacterial activity against Staphylococcus aureus ATCC 25923 assessed as effect on planktonic growth at 5.5 ug/ml after 20 hrs relative to control; format: functional
Streptococcus mutans [35] = assay: Antibacterial activity against Streptococcus mutans ATCC 25175 assessed as inhibition of biofilm formation after 20 hrs by crystal-violet staining method; format: functional; conditions: ATCC 25175, 20 h
Staphylococcus aureus [36] = assay: Antibacterial activity against Staphylococcus aureus ATCC 25923 assessed as effect on planktonic growth at 2.73 ug/ml after 20 hrs relative to control; format: functional
Staphylococcus aureus [37] = assay: Antibacterial activity against Staphylococcus aureus ATCC 25923 assessed as effect on planktonic growth at 43.8 ug/ml after 20 hrs relative to control; format: functional
Pseudomonas aeruginosa [38] = assay: Antibacterial activity against Pseudomonas aeruginosa ATCC 27853 assessed as effect on planktonic growth at 10.9 ug/ml after 20 hrs relative to control; format: functional
[39] = tested on: Staphylococcus epidermidis; assay: Antibacterial activity against Staphylococcus epidermidis ATCC 35547 assessed as effect on planktonic growth at 87.5 ug/ml after 20 hrs relative to control; format: functional
[40] = tested on: Staphylococcus epidermidis; assay: Antibacterial activity against Staphylococcus epidermidis ATCC 35547 assessed as effect on planktonic growth at 0.34 ug/ml after 20 hrs relative to control; format: functional
Streptococcus mutans [41] = assay: Antibacterial activity against Streptococcus mutans ATCC 25175 assessed as effect on planktonic growth at 0.68 ug/ml after 20 hrs relative to control; format: functional
[42] = tested on: Staphylococcus epidermidis; assay: Antibacterial activity against Staphylococcus epidermidis ATCC 35547 assessed as inhibition of biofilm formation after 20 hrs by crystal-violet staining method; format: functional, organism-based; conditions: for IC50: ATCC 35547, 20 h
Pseudomonas aeruginosa [43] = assay: Antibacterial activity against Pseudomonas aeruginosa ATCC 27853 assessed as effect on planktonic growth at 0.17 ug/ml after 20 hrs relative to control; format: functional
Staphylococcus aureus [44] = assay: Antibacterial activity against Staphylococcus aureus ATCC 25923 assessed as effect on planktonic growth at 1.37 ug/ml after 20 hrs relative to control; format: functional
Pseudomonas aeruginosa [45] = assay: Antibacterial activity against Pseudomonas aeruginosa ATCC 27853 assessed as effect on planktonic growth at 2.73 ug/ml after 20 hrs relative to control; format: functional
Pseudomonas aeruginosa [46] = assay: Induction of biofilm formation in Pseudomonas aeruginosa ATCC 27853 at 87.5 ug/ml after 20 hrs by crystal-violet staining method relative to control; format: organism-based

IC50 (Pseudomonas aeruginosa [2]; ATCC 27853, 20 h): 25.2 mg/L (≈ 52.5 µM)
pIC50 (Staphylococcus aureus [21]): 4.02
pIC50 (Streptococcus mutans [35]): 4.23
IC50 [42]: 12.2 mg/L (≈ 25.4 µM)
Compound: COc1ccccc1C1=C(Br)C(=O)N(CC(C)C)/C1=C/c1ccc(C(F)(F)F)cc1
Activity (Streptococcus mutans [1]): -15.8%
inhibition (Pseudomonas aeruginosa [2]): Dose-dependent effect
Activity (Pseudomonas aeruginosa [3]): -10.4%
Activity (Pseudomonas aeruginosa [4]): -4%
Activity (Staphylococcus aureus [5]): 0%
inhibition at 44 µg/mL (Streptococcus mutans [6]): 88.8%
Activity (Pseudomonas aeruginosa [7]): 9.1%
Activity (Streptococcus mutans [8]): -0.8%
Activity (Streptococcus mutans [9]): -19.3%
Activity (Pseudomonas aeruginosa [10]): 30.6%
Activity (Staphylococcus aureus [11]): 91%
Activity [12]: 1.1%
Activity [13]: 36.6%
Activity (Streptococcus mutans [14]): -55.3%
Activity (Pseudomonas aeruginosa [15]): -5.2%
Activity (Streptococcus mutans [16]): -5.4%
Activity [17]: -6.4%
Activity (Streptococcus mutans [18]): 7.9%
Activity (Pseudomonas aeruginosa [19]): -15.8%
Activity (Staphylococcus aureus [20]): -1.6%
Activity [22]: 88.5%
Activity (Staphylococcus aureus [23]): 4.9%
Activity [24]: -10.2%
Activity [25]: 40.1%
Activity (Pseudomonas aeruginosa [26]): 34.8%
Activity (Streptococcus mutans [27]): 10.6%
Activity [28]: 1%
Activity [29]: -16.7%
Activity (Streptococcus mutans [30]): -12%
Activity (Staphylococcus aureus [31]): -5.2%
Activity (Staphylococcus aureus [32]): -3.8%
Activity (Streptococcus mutans [33]): -46.9%
Activity (Staphylococcus aureus [34]): -18.5%
Activity (Staphylococcus aureus [36]): -21.7%
Activity (Staphylococcus aureus [37]): 59.8%
Activity (Pseudomonas aeruginosa [38]): -4.1%
Activity [39]: -5.5%
Activity [40]: -2.2%
Activity (Streptococcus mutans [41]): 6%
inhibition [42]: Dose-dependent effect
Activity (Pseudomonas aeruginosa [43]): -2.3%
Activity (Staphylococcus aureus [44]): -14.9%
Activity (Pseudomonas aeruginosa [45]): -13.1%

Activity (Pseudomonas aeruginosa [46]): 84.6%
IC50 [42]: > 87.5 mg/L
Compound: COc1cccc(/C=C2\C(c3cc(Cl)ccc3OC)=C(Br)C(=O)N2CC(C)C)c1
Activity (Streptococcus mutans [1]): 8.3%
inhibition (Pseudomonas aeruginosa [2]): Dose-dependent effect
Activity (Pseudomonas aeruginosa [3]): -6.6%
Activity (Pseudomonas aeruginosa [4]): 0.3%
Activity (Staphylococcus aureus [5]): 45.5%
Activity (Pseudomonas aeruginosa [7]): 19.6%
Activity (Streptococcus mutans [8]): 3.5%
Activity (Streptococcus mutans [9]): 17%
Activity (Pseudomonas aeruginosa [10]): 9.6%
Activity (Staphylococcus aureus [11]): 9.8%
Activity [12]: 4.2%
Activity [13]: 12.7%
Activity (Streptococcus mutans [14]): 44.1%
Activity (Pseudomonas aeruginosa [15]): 2.9%
Activity (Streptococcus mutans [16]): 6.1%
Activity [17]: 1.5%
Activity (Streptococcus mutans [18]): 2.2%
Activity (Pseudomonas aeruginosa [19]): 2.8%
Activity (Staphylococcus aureus [20]): 49.8%
Activity [22]: 25.4%
Activity (Staphylococcus aureus [23]): 14%
Activity [24]: 0.3%
Activity [25]: 44.9%
Activity (Pseudomonas aeruginosa [26]): 24.2%
Activity (Streptococcus mutans [27]): -3.9%
Activity [28]: 4.1%
Activity [29]: 0.7%
Activity (Streptococcus mutans [30]): 14.8%
Activity (Staphylococcus aureus [31]): 39.1%
Activity (Staphylococcus aureus [32]): 11.5%
Activity (Streptococcus mutans [33]): 76.4%
Activity (Staphylococcus aureus [34]): 92.3%
Activity (Staphylococcus aureus [36]): 34%
Activity (Staphylococcus aureus [37]): 20.4%
Activity (Pseudomonas aeruginosa [38]): 8.8%
Activity [39]: 45.3%
Activity [40]: 0.4%
Activity (Streptococcus mutans [41]): -1.7%
inhibition [42]: Dose-dependent effect
Activity (Pseudomonas aeruginosa [43]): 18%
Activity (Staphylococcus aureus [44]): 36.2%
Activity (Pseudomonas aeruginosa [45]): -5.3%
